The results in this text go back to PubChem BioAssay AID1745844 (Carcinogenic Potency Database (CPDB), 2022).

Values joined by “and” are separate entries in the source; they are usually repeats but may differ in a detail not shown here. Equal values may be shown once. Active and inactive are the calls of the source. The rule behind the calls is not given here.

This data set concerns rodent lifetime carcinogenesis bioassay, tumor incidence TD50. The data set can be described thus: chronic cancer bioassays in animals – CPDB, compiled studies (AID 1745844).
[1] abbreviates: mouse, strain B6AKF1, females, oral dosing, site: lung, lesion: adenoma, dosed 76 weeks, study length 76 weeks.

Take `CCCCOCCOCCOCc1cc2c(cc1CCC)OCO2`: the carcinogen call runs as follows: (mouse, strain B6AKF1, females, oral dosing, site: liver, lesion: hepatoma, dosed 76 weeks, study length 76 weeks) “negative (inactive)”; under setting [1], “negative (inactive)”; (mouse, strain B6AKF1, males, oral dosing, site: any site (literature study), lesion: several types, types named in the paper, dosed 76 weeks, study length 76 weeks) “negative (inactive)”; (mouse, strain B6AKF1, males, oral dosing, site: liver, lesion: hepatoma, dosed 76 weeks, study length 76 weeks) “negative (inactive)”; (mouse, strain B6AKF1, males, oral dosing, site: lung, lesion: adenoma, dosed 76 weeks, study length 76 weeks) “negative (inactive)”; (mouse, strain B6C3F1, females, in feed, site: any site (literature study), lesion: several types, types named in the paper, dosed 112 weeks, study length 112 weeks) “negative (inactive)”. The carcinogen call was “negative (inactive)” (mouse, strain B6C3F1, females, oral dosing, site: any site (literature study), lesion: one or several types, types not named, dosed 76 weeks, study length 76 weeks); “negative (inactive)” (mouse, strain B6C3F1, females, oral dosing, site: liver, lesion: hepatoma, dosed 76 weeks, study length 76 weeks); “negative (inactive)” (mouse, strain B6C3F1, females, oral dosing, site: lung, lesion: several types, types named in the paper, dosed 76 weeks, study length 76 weeks); “negative (inactive)” (mouse, strain B6C3F1, males, in feed, site: any site (literature study), lesion: several types, types named in the paper, dosed 112 weeks, study length 112 weeks); “negative (inactive)” (mouse, strain B6C3F1, males, oral dosing, site: lung, lesion: several types, types named in the paper, dosed 76 weeks, study length 76 weeks); “negative (inactive)” (rat, strain F344/DuCrj, females, in feed, site: any site (literature study), lesion: several types, types named in the paper, dosed 104 weeks, study length 110 weeks). The carcinogen call reads like this: (rat, strain F344/DuCrj, females, in feed, site: liver, lesion: neoplastic nodule, dosed 104 weeks, study length 110 weeks) “negative (inactive)”; (rat, strain F344/DuCrj, males, in feed, site: any site (literature study), lesion: several types, types named in the paper, dosed 104 weeks, study length 110 weeks) “negative (inactive)”; (rat, strain Fischer 344, males, in feed, site: any site (literature study), lesion: several types, types named in the paper, dosed 107 weeks, study length 107 weeks) “negative (inactive)”. The TD50 (in general, the 50% point of the dose-response relation for the toxic effect studied) reads like this: under setting [1], 265 mg/kg/day; (mouse, strain B6C3F1, females, in feed, site: liver, lesion: hepatocellular adenoma + hepatocellular carcinoma + neoplastic nodule, dosed 112 weeks, study length 112 weeks) 3260 mg/kg/day; (mouse, strain B6C3F1, females, oral dosing, site: any site (literature study), lesion: several types, types named in the paper, dosed 76 weeks, study length 76 weeks) 83.1 mg/kg/day; (mouse, strain B6C3F1, males, oral dosing, site: all sites, lesion: reticulum-cell sarcoma, dosed 76 weeks, study length 76 weeks) 34.8 mg/kg/day; (mouse, strain B6C3F1, males, oral dosing, site: liver, lesion: hepatoma, dosed 76 weeks, study length 76 weeks) 186 mg/kg/day (inactive) and 98.5 mg/kg/day; (mouse, strain Charles River CD1, females, in feed, site: liver, lesion: basophil adenoma, dosed 79 weeks, study length 79 weeks) 4540 mg/kg/day. Besides, the TD50 reads like this: (mouse, strain Charles River CD1, females, in feed, site: liver, lesion: eosinophilic adenoma, dosed 79 weeks, study length 79 weeks) 1120 mg/kg/day; (mouse, strain Charles River CD1, females, in feed, site: liver, lesion: hepatocellular adenoma, dosed 52 weeks, study length 52 weeks) 2380 mg/kg/day; (mouse, strain Charles River CD1, females, in feed, site: liver, lesion: hepatocellular adenoma, dosed 79 weeks, study length 79 weeks) 825 mg/kg/day; (mouse, strain Charles River CD1, females, in feed, site: liver, lesion: hepatocellular carcinoma, dosed 52 weeks, study length 52 weeks) 756 mg/kg/day; (mouse, strain Charles River CD1, females, in feed, site: liver, lesion: several types, types named in the paper, dosed 52 weeks, study length 52 weeks) 516 mg/kg/day; (mouse, strain Charles River CD1, males, in feed, site: liver, lesion: basophil adenoma, dosed 79 weeks, study length 79 weeks) 844 mg/kg/day. Besides, the TD50 is, setting by setting: (mouse, strain Charles River CD1, males, in feed, site: liver, lesion: eosinophilic adenoma, dosed 79 weeks, study length 79 weeks) 355 mg/kg/day; (mouse, strain Charles River CD1, males, in feed, site: liver, lesion: hepatocellular adenoma, dosed 52 weeks, study length 52 weeks) 1060 mg/kg/day; (mouse, strain Charles River CD1, males, in feed, site: liver, lesion: hepatocellular adenoma, dosed 79 weeks, study length 79 weeks) 160 mg/kg/day; (mouse, strain Charles River CD1, males, in feed, site: liver, lesion: hepatocellular carcinoma, dosed 52 weeks, study length 52 weeks) 410 mg/kg/day; (mouse, strain Charles River CD1, males, in feed, site: liver, lesion: hepatocellular carcinoma, dosed 79 weeks, study length 79 weeks) 3470 mg/kg/day; (mouse, strain Charles River CD1, males, in feed, site: liver, lesion: mixed cell adenoma, dosed 79 weeks, study length 79 weeks) 2630 mg/kg/day. Also, the TD50 is 229 mg/kg/day (mouse, strain Charles River CD1, males, in feed, site: liver, lesion: several types, types named in the paper, dosed 52 weeks, study length 52 weeks); 12800 mg/kg/day (inactive) (rat, strain Charles River CD (Sprague-Dawley), females, in feed, site: liver, lesion: hepatocellular carcinoma, dosed 104 weeks, study length 104 weeks); 12800 mg/kg/day (inactive) (rat, strain Charles River CD (Sprague-Dawley), males, in feed, site: liver, lesion: hepatocellular adenoma, dosed 104 weeks, study length 104 weeks); 78500 mg/kg/day (inactive) (rat, strain Charles River CD (Sprague-Dawley), males, in feed, site: liver, lesion: hepatocellular carcinoma, dosed 104 weeks, study length 104 weeks); 19100 mg/kg/day (rat, strain F344/DuCrj, females, in feed, site: liver, lesion: cholangioma, cystic, dosed 96 weeks, study length 96 weeks); 2460 mg/kg/day (rat, strain F344/DuCrj, females, in feed, site: liver, lesion: hepatocellular adenoma, dosed 96 weeks, study length 96 weeks). Also, the TD50 reads like this: (rat, strain F344/DuCrj, females, in feed, site: liver, lesion: hepatocellular carcinoma, dosed 96 weeks, study length 96 weeks) 2220 mg/kg/day; (rat, strain F344/DuCrj, females, in feed, site: liver, lesion: hepatocellular tumor, dosed 96 weeks, study length 96 weeks) 977 mg/kg/day; (rat, strain F344/DuCrj, males, in feed, site: liver, lesion: cholangioma, cystic, dosed 95 weeks, study length 95 weeks) 30200 mg/kg/day; (rat, strain F344/DuCrj, males, in feed, site: liver, lesion: hepatocellular adenoma, dosed 95 weeks, study length 95 weeks) 1400 mg/kg/day; (rat, strain F344/DuCrj, males, in feed, site: liver, lesion: hepatocellular carcinoma, dosed 95 weeks, study length 95 weeks) 806 mg/kg/day; (rat, strain F344/DuCrj, males, in feed, site: liver, lesion: hepatocellular carcinoma, dosed 104 weeks, study length 110 weeks) 20100 mg/kg/day (inactive). Also, the TD50 reads like this: (rat, strain F344/DuCrj, males, in feed, site: liver, lesion: hepatocellular tumor, dosed 95 weeks, study length 95 weeks) 468 mg/kg/day; (rat, strain F344/DuCrj, males, in feed, site: liver, lesion: neoplastic nodule, dosed 104 weeks, study length 110 weeks) 7690 mg/kg/day (inactive); (rat, strain Fischer 344, females, in feed, site: all sites, lesion: lymphoma, dosed 107 weeks, study length 107 weeks) 1180 mg/kg/day (inactive); (rat, strain Fischer 344, females, in feed, site: any site (literature study), lesion: several types, types named in the paper, dosed 107 weeks, study length 107 weeks) 7820 mg/kg/day; (rat, strain Wistar, both sexes, in feed, site: liver, lesion: hepatocellular carcinoma, dosed 95 weeks, study length 104 weeks) 26100 mg/kg/day (inactive); (rat, strain Wistar, both sexes, in feed, site: liver, lesion: hepatoma, dosed 95 weeks, study length 104 weeks) 22500 mg/kg/day (inactive).
In the case of `CC(Cc1ccccc1)NN` (centres undefined), the carcinogen call reads like this: (mouse, strain Swiss albino, females, in drinking water, site: liver, lesion: hepatoma, dosed 119 weeks, study length 127 weeks) “negative (inactive)”; (mouse, strain Swiss albino, females, in drinking water, site: lung, lesion: one or several types, types not named, dosed 119 weeks, study length 127 weeks) “negative (inactive)”; (mouse, strain Swiss albino, males, in drinking water, site: liver, lesion: hepatoma, dosed 100 weeks, study length 112 weeks) “negative (inactive)”; (mouse, strain Swiss albino, males, in drinking water, site: lung, lesion: one or several types, types not named, dosed 100 weeks, study length 112 weeks) “negative (inactive)”.
On to `CC(=O)Nc1ccc(CC(=O)O)cc1`, for which the carcinogen call reads like this: (mouse, strain B6C3F1, females, in feed, site: liver, lesion: hepatocellular adenoma, dosed 78 weeks, study length 78 weeks) “negative (inactive)”; (mouse, strain B6C3F1, females, in feed, site: liver, lesion: hepatocellular carcinoma, dosed 78 weeks, study length 78 weeks) “negative (inactive)”; (mouse, strain B6C3F1, females, in feed, site: lung, lesion: several types, types named in the paper, dosed 78 weeks, study length 78 weeks) “negative (inactive)”; (mouse, strain B6C3F1, males, in feed, site: liver, lesion: hepatocellular adenoma, dosed 78 weeks, study length 78 weeks) “negative (inactive)”; (rat, strain Fischer 344, females, in feed, site: liver, lesion: several types, types named in the paper, dosed 104 weeks, study length 104 weeks) “negative (inactive)”; (rat, strain Fischer 344, males, in feed, site: liver, lesion: hepatocellular adenoma, dosed 104 weeks, study length 104 weeks) “negative (inactive)”. Also, the carcinogen call (rat, strain Fischer 344, males, in feed, site: liver, lesion: hepatocellular carcinoma, dosed 104 weeks, study length 104 weeks) is “negative (inactive)”. In addition, the TD50 by setting is: (mouse, strain B6C3F1, males, in feed, site: lung, lesion: alveolar/bronchiolar adenoma, dosed 78 weeks, study length 78 weeks) 27700 mg/kg/day (inactive); (mouse, strain B6C3F1, males, in feed, site: lung, lesion: alveolar/bronchiolar carcinoma, dosed 78 weeks, study length 78 weeks) 56100 mg/kg/day (inactive).
